Experimental findings from US6413736B1, “Astaxanthin over-producing strains of phaffia rhodozyma, methods for their cultivation, and their use in animal feeds” (Archer-Daniels-Midland Company, priority 1993, dated 2002) are described below.

The test system of the test is Rainbow trout (Onchorhynchus mykiss, Shasta strain). In words: Rainbow trout feeding trial, 84 days: whole or disrupted Phaffia yeast versus synthetic astaxanthin. It is filed as in vivo. Conditions: after 84 days of feeding, FIG. 10, Phaffia versus synthetic astaxanthin. On the procedure: The Phaffia strain was grown in a 2,000 l fermentor in a manner substantially described as above. Cells were concentrated to 15-22% solids by centrifugation and dried. The feed was processed by Zeigler Bros. Inc., […], Pa. The novel Phaffia rhodozma or synthetic astaxanthin (5% Carophyll Pink, Hoffmann-LaRoche) were incorporated into their #1⁄8 Trout Grower pelleted food. Rainbow trout (Onchorhynchus mykiss, Shasta strain) were obtained from a local commercial trout grower. After acclimation to laboratory conditions and an experimental control diet, the trout were moved into separate experimental tanks (28 fish per tank). […] Collectively, the procedures and diets employed in the experiments were designed to result in near-optimal growth of trout at 10 C, the approximate temperature at which most commercially-produced trout are raised. […] The fish were stunned by a blow to the head; total length measured; weight after blotting dry determined; and then each fish was cut across the isthmus severing the ventral aorta. […] The carotenoids were then partitioned into hexanes:ethyl acetate (1:1 by volume) and the total carotenoid and astaxanthin content were determined as described above in the section entitled PIGMENT EXTRACTION AND ASTAXANTHIN ANALYSIS. […] The DMSO extracted carotenoids were then quantified as described above in the section entitled PIGMENT EXTRACTION AND ASTAXANTHIN ANALYSIS. […]

Consider `CC1=C(/C=C/C(C)=C/C=C/C(C)=C/C=C/C=C(C)/C=C/C=C(C)/C=C/C2=C(C)C(=O)C(O)CC2(C)C)C(C)(C)CC(O)C1=O` (stereo not drawn) [synthetic astaxanthin, 3,3′-dihydroxy-β,β-carotene-4,4′-dione], for which the flesh carotenoid content result is given as “the same”.
